“Also recorded” adds a separate entry of the source.

Consider two sequences from patent US20030170229A1, “Vaccine” (SmithKline Beecham Biologicals s.a., priority 1999, published 2003).

Experiment [1] relates to P14 peptide. The experiment in a line: Anti-peptide ELISA on sera of mice immunised with P14 conjugates. The format is in vivo, BalbC mice. As to conditions: mice vaccinated with P14 conjugate. On the procedure:
(§1) The anti-peptide and anti-carrier immune responses were investigated using an ELISA technique outlined below. Microtiterplates (Nunc) are coated with the specific antigen in PBS (4° overnight) with either: Streptavidin at 2 μg/ml (followed by incubation with biotinylated peptide (1 μM) for 1 hour at 37° C.), Wash 3× PBS-Tween 20 0.1%. Saturate plates with PBS-BSA 1%-Tween 20 0.1% (Sat buffer) for 1 hr at 37°. Add 1° antibody=sera in two-step dilution (in Sat buffer), incubate 1 hr 30 minutes at 37°. Wash 3×. Add 2° anti-mouse Ig (or anti-mouse isotype specific monoclonal antibody) coupled to HRP. Incubate 1 hr at 37°. Wash 5×. Reveal with TMB (BioRad) for 10 minutes at room temperature in the dark. Block reaction with 0.4N H2SO4.
The conjugates comprising the mimotope P14 (25 μg protein/dose), described in example 1, were administered into groups of 10 BalbC mice, adjuvanted with and oil in water emulsion containing QS21 and 3D-MPL described in WO 95/17210. Boosting was be performed on days 14, 24 and 72, sera was harvested 14 days after each immunisation. The immune responses anti-peptide and anti-plate bound IgE was followed using ELISA methods described in Example 1. The antiserum was then tested for anaphylactogenicity and functional activity in the inhibition of histamine release from human allergic basophils (methods as described in example 1).
In general terms: An ELISA detects its analyte on a solid surface through an enzyme-linked reagent.

For experiment [2], the system named is human IgE. The experiment is described as follows: IgE plate bound ELISA: anti-human IgE reactivity in serum of immunised mice. The format is in vivo, mouse.
For experiment [3], the system named is allergic human basophils. The experiment is described as follows: Human basophil assay, blocking assay (inhibition of allergen-triggered histamine release). The format is cell-based. As to conditions: mouse antiserum; allergic human basophils triggered with allergen. An excerpt:
Samples of cells were lysed by 2× freeze/thawing to assay total histamine contained in the cells.
The degree of inhibition of histamine release can be calculated using the formula: […]
(histamine release from antigen stimulated cells*)
Values corrected for spontaneous release.

The test system of experiment [4] is Peptide P11. The experiment in a line: Anti-P11 ELISA on sera of mice immunised with P11-BSA. The format is in vivo. As to conditions: P11 coupled to BSA, 25 μg in SBAS2 IM, 8 female BALB/c mice, days 0, 14, 28. The method, then:
FIG. 5, Antibody response anti-P11. Peptide P11 is coated at 1 μg/ml in carbonate buffer at +4° C. overnight. After saturation of plates, two-fold serial dilution of sera are added and incubated for 1 h at 37° C. Bound IgG is detected with a biotinylated anti-mouse Ab followed by streptavidin-POD and TMB substrate. Time points measured A. days 14 post vaccination 1, and day 14 post v2; B, Day 14 post v3.
as §1
25 μg of conjugate formulated in SBAS2 was injected IM into 8 female BALB/c mice at days 0, 14 and 28. […] Anti-peptide and anti-IgE antibodies raised by vaccination were measured by ELISA, as described in Example 1.

Take “APEWPGSRDKRTC (Human peptide sequence) [Peptide P14]”: the “induction of anti-P14 immune response” value in experiment [1] is reported as “capable of raising high titres”. Further, the “induction of anti-IgE immune response” value in experiment [2] (mice vaccinated with P14 conjugate) is “capable of raising high titres”. In addition, the “inhibition of histamine release by antiserum/antibodies raised by vaccination” value in experiment [3] is “potent in the inhibition of histamine release; also recorded: inhibited histamine release”.

Turning to “CRASGKPVNHSTRKEEKQRNGLL (Human peptide sequence) [Peptide P11]”, the anti-IgE response in experiment [2] (as expressed in mAb005 equivalents, all mice, after a third injection of P11 coupled to BSA) lay within 28 to 244 µg/mL. Besides, the “IgG anti-P11 response” value in experiment [4] is “detected already after one injection, but increased further after the second and third injection”.
